Measurements published in PubChem BioAssay (NCI).
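How tested: cells in 96-well plates exposed to compound for 48 hours at five concentrations. Abbreviation: GI50, concentration required for 50% inhibition of growth. TGI marks complete inhibition of growth.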

Key:
Experiment in all cases: NCI tumour cell line growth inhibition, 48 h
[1] = test system: MALME-3M melanoma
[2] = test system: RXF 393 renal
[3] = test system: M14 melanoma
[4] = test system: SF-539 CNS
[5] = test system: BT-549 breast
[6] = test system: ACHN renal
[7] = test system: OVCAR-4 ovarian
[8] = test system: A549 NSCLC
[9] = test system: SF-268 CNS
[10] = test system: MDA-MB-231 breast
[11] = test system: SK-MEL-5 melanoma
[12] = test system: CAKI-1 renal
[13] = test system: HCT-116 colon
[14] = test system: HS 578T breast
[15] = test system: TK-10 renal
[16] = test system: IGROV1 ovarian
[17] = test system: SK-OV-3 ovarian
[18] = test system: UACC-257 melanoma
[19] = test system: SNB-75 CNS
[20] = test system: NCI-H522 lung
[21] = test system: LOX IMVI melanoma
[22] = test system: DU-145 prostate
[23] = test system: HOP-92 NSCLC
[24] = test system: NCI-H226 lung
[25] = test system: K-562 leukemia
[26] = test system: KM12 colon
[27] = test system: SK-MEL-28 melanoma
[28] = test system: MDA-MB-435
[29] = test system: NCI-H460 lung
[30] = test system: UO-31 renal
[31] = test system: HL-60(TB) leukemia
[32] = test system: RPMI-8226 leukemia
[33] = test system: A498 renal
[34] = test system: 786-0 renal
[35] = test system: U251 CNS
[36] = test system: HOP-62 NSCLC
[37] = test system: SF-295 CNS
[38] = test system: MOLT-4 leukemia
[39] = test system: NCI/ADR-RES ovarian
[40] = test system: SN12C renal
[41] = test system: OVCAR-8 ovarian
[42] = test system: T-47D breast
[43] = test system: CCRF-CEM leukemia
[44] = test system: SK-MEL-2 melanoma
[45] = test system: NCI-H23 lung
[46] = test system: COLO 205 colon
[47] = test system: OVCAR-5 ovarian
[48] = test system: UACC-62 melanoma
[49] = test system: SR leukemia
[50] = test system: SNB-19 CNS
[51] = test system: PC-3 prostate
[52] = test system: HCC-2998 colon
[53] = test system: HT29 colon
[54] = test system: SW-620 colon
[55] = test system: OVCAR-3 ovarian
[56] = test system: HCT-15 colon
[57] = test system: MCF7 breast

COc1cc(-c2cc(/C=C3\C(=O)Nc4ccc(Cl)cc43)[nH]n2)cc(OC)c1OC
GI50 [1]: 2.71 µM | TGI [1]: 8.63 µM | GI50 [2]: 9.21 µM | TGI [2]: > 100 µM | GI50 [3]: 3.09 µM | TGI [3]: 14 µM | GI50 [4]: 6.7 µM | TGI [4]: 26.3 µM | GI50 [5]: 2.52 µM | TGI [5]: 7.16 µM | GI50 [6]: 3.46 µM | TGI [6]: 15.2 µM | GI50 [7]: 5.11 µM | TGI [7]: > 100 µM | GI50 [8]: 7.08 µM | TGI [8]: > 100 µM | GI50 [9]: 35.3 µM | TGI [9]: > 100 µM | GI50 [10]: 4.41 µM | TGI [10]: > 100 µM | GI50 [11]: 1.46 µM | TGI [11]: 3.22 µM | GI50 [12]: 2.82 µM | TGI [12]: 20.5 µM | GI50 [13]: 4.7 µM | TGI [13]: 69.3 µM | GI50 [14]: 5.03 µM | TGI [14]: > 100 µM | GI50 [15]: 8.15 µM | TGI [15]: 92.7 µM | GI50 [16]: 6.34 µM | TGI [16]: > 100 µM | GI50 [17]: 49.3 µM | TGI [17]: > 100 µM | GI50 [18]: 2.7 µM | TGI [18]: 11.6 µM | GI50 [19]: 3.44 µM | TGI [19]: 27.9 µM | GI50 [20]: 3.12 µM | TGI [20]: 14.5 µM | GI50 [21]: 3.45 µM | TGI [21]: 22.7 µM | GI50 [22]: 9.54 µM | TGI [22]: > 100 µM | GI50 [23]: 1.45 µM | TGI [23]: 16.8 µM | GI50 [24]: 3.84 µM | TGI [24]: 26.5 µM | GI50 [25]: 4.05 µM | TGI [25]: > 100 µM | GI50 [26]: 3.3 µM | TGI [26]: > 100 µM | GI50 [27]: 7.37 µM | TGI [27]: 72.4 µM | GI50 [28]: 3.97 µM | TGI [28]: > 100 µM | GI50 [29]: 5.03 µM | TGI [29]: > 100 µM | GI50 [30]: 2.81 µM | TGI [30]: 23.6 µM | GI50 [31]: 2.26 µM | TGI [31]: 6.82 µM | GI50 [32]: 1.88 µM | TGI [32]: 4.81 µM | GI50 [33]: 1.07 µM | TGI [33]: 7.24 µM | GI50 [34]: 15.2 µM | TGI [34]: > 100 µM | GI50 [35]: 5.37 µM | TGI [35]: > 100 µM | GI50 [36]: 5.14 µM | TGI [36]: > 100 µM | GI50 [37]: 3.96 µM | TGI [37]: 34.4 µM | GI50 [38]: 2.7 µM | TGI [38]: 8.87 µM | GI50 [39]: 3.73 µM | TGI [39]: > 100 µM | GI50 [40]: 5.72 µM | TGI [40]: > 100 µM | GI50 [41]: 4.31 µM | TGI [41]: > 100 µM | GI50 [42]: 2.6 µM | TGI [42]: 18.3 µM | GI50 [43]: 3.02 µM | TGI [43]: 26.7 µM | GI50 [44]: 3.52 µM | TGI [44]: 21 µM | GI50 [45]: 4.95 µM | TGI [45]: > 100 µM | GI50 [46]: 2.92 µM | TGI [46]: 14.9 µM | GI50 [47]: 27.9 µM | TGI [47]: > 100 µM | GI50 [48]: 1.73 µM | TGI [48]: 3.9 µM | GI50 [49]: 3.06 µM | TGI [49]: 12.7 µM | GI50 [50]: 5.04 µM | TGI [50]: > 100 µM | GI50 [51]: 2.51 µM | TGI [51]: 18.9 µM | GI50 [52]: 64 µM | TGI [52]: > 100 µM | GI50 [53]: 7.54 µM | TGI [53]: 45.1 µM | GI50 [54]: 6.1 µM | TGI [54]: > 100 µM | GI50 [55]: 6.16 µM | TGI [55]: 71.6 µM | GI50 [56]: 3.6 µM | TGI [56]: > 100 µM | GI50 [57]: 3.15 µM | TGI [57]: > 100 µM

Cc1ccc2c(NCCCN(C)C)c3c(C)nn(C)c3nc2c1
GI50 [1]: 4.97 µM | TGI [1]: 22 µM | GI50 [2]: 2.71 µM | TGI [2]: 12.1 µM | GI50 [3]: 4.34 µM | TGI [3]: 17.6 µM | GI50 [4]: 4.7 µM | TGI [4]: 19.6 µM | GI50 [5]: 13.7 µM | TGI [5]: 31 µM | GI50 [6]: 2.25 µM | TGI [6]: 16.9 µM | GI50 [7]: 3.06 µM | TGI [7]: 16.1 µM | GI50 [8]: 3.45 µM | TGI [8]: 25.1 µM | GI50 [9]: 4.18 µM | TGI [9]: 23.9 µM | GI50 [10]: 3.86 µM | TGI [10]: 19.4 µM | GI50 [11]: 3.66 µM | TGI [11]: 14.3 µM | GI50 [12]: 3.04 µM | TGI [12]: 38.1 µM | GI50 [13]: 3.04 µM | TGI [13]: 25.1 µM | GI50 [14]: 4.24 µM | TGI [14]: 33.5 µM | GI50 [15]: 2.89 µM | TGI [15]: 14 µM | GI50 [16]: 4.17 µM | TGI [16]: 29.6 µM | GI50 [17]: 7.26 µM | TGI [17]: 68.7 µM | GI50 [18]: 3.9 µM | TGI [18]: 14.4 µM | GI50 [19]: 1.89 µM | TGI [19]: 10.9 µM | GI50 [20]: 2.76 µM | TGI [20]: 12.7 µM | GI50 [21]: 2.22 µM | TGI [21]: 5.64 µM | GI50 [22]: 3.88 µM | TGI [22]: 37.7 µM | GI50 [23]: 1.6 µM | TGI [23]: 5.99 µM | GI50 [24]: 3.34 µM | TGI [24]: 27 µM | GI50 [25]: 3.14 µM | TGI [25]: > 100 µM | GI50 [26]: 4.55 µM | TGI [26]: 31.8 µM | GI50 [27]: 4.44 µM | TGI [27]: 17.3 µM | GI50 [28]: 3.28 µM | TGI [28]: 14 µM | GI50 [29]: 2.96 µM | TGI [29]: 10.2 µM | GI50 [30]: 2.68 µM | TGI [30]: 14 µM | GI50 [31]: 5.08 µM | TGI [31]: 22.9 µM | GI50 [32]: 3.3 µM | TGI [32]: 14.4 µM | GI50 [33]: 1.8 µM | TGI [33]: 7.86 µM | GI50 [34]: 4.99 µM | TGI [34]: 26.5 µM | GI50 [35]: 4.77 µM | TGI [35]: 29.4 µM | GI50 [36]: 6.46 µM | TGI [36]: 60.2 µM | GI50 [37]: 3.83 µM | TGI [37]: 28.4 µM | GI50 [38]: 5.11 µM | TGI [38]: 33.1 µM | GI50 [39]: 3.34 µM | TGI [39]: 66.4 µM | GI50 [40]: 3.52 µM | TGI [40]: 29.9 µM | GI50 [41]: 3.73 µM | TGI [41]: 21.7 µM | GI50 [42]: 9.5 µM | TGI [42]: 98.8 µM | GI50 [43]: 5.09 µM | TGI [43]: 88.8 µM | GI50 [44]: 3.64 µM | TGI [44]: 11.1 µM | GI50 [45]: 5.29 µM | TGI [45]: 25.3 µM | GI50 [46]: 3.03 µM | TGI [46]: 11.4 µM | GI50 [47]: 3.69 µM | TGI [47]: 22.4 µM | GI50 [48]: 3.9 µM | TGI [48]: 16.4 µM | GI50 [49]: 3.36 µM | TGI [49]: > 100 µM | GI50 [50]: 3.96 µM | TGI [50]: 39.1 µM | GI50 [51]: 3.59 µM | TGI [51]: 16.3 µM | GI50 [52]: 5.83 µM | TGI [52]: 22.4 µM | GI50 [53]: 2.62 µM | TGI [53]: 8.88 µM | GI50 [54]: 2.96 µM | TGI [54]: 35.5 µM | GI50 [55]: 4.13 µM | TGI [55]: 24.8 µM | GI50 [56]: 2.59 µM | TGI [56]: 18.3 µM | GI50 [57]: 2.53 µM | TGI [57]: 7.04 µM
